Calls of active or inactive are those of the source.
Columns and labels:
Format in all cases: functional
[1] = NIH-3T3 fibroblast cytotoxicity, dose response, cytotoxicity control, cell-based, fluorescence, Alamar Blue, secondary assay (AID 2327);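 note: NIH-3T3 mouse fibroblasts cultured with fluconazole at 8 µg/mL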
INS1 = assay: INS-1E survival protection against cytokine death – cell-based, luminescence, retest, dose response (AID 449756); settings: Rattus norvegicus;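 note: cell death triggered by IL-1 beta plus TNF-alpha plus IFN-gamma mixture; protective hits raise ATP signal compared with cytokine alone wells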
[2] = reduction of Shn3 3'UTR-driven luciferase in osteoblasts – cell-based, Clone20 osteoblasts, firefly luciferase, cherry-picked, dose response (AID 624132);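 note: firefly luciferase luminescence from reporter carrying the Shn3 3'UTR in osteoblasts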
[3] = molecular target: Tyrosine-protein kinase JAK2 (Homo sapiens, UniProt O60674);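 note: JAK2 tested as one member of a kinase panel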
[4] = molecular target: T1, Tyrosine-protein kinase receptor TYRO3 (Homo sapiens, UniProt Q06418);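 note: TYRO3 value obtained as one member of a kinome-wide profiling panel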
T1 sequence (Q06418 whole entry): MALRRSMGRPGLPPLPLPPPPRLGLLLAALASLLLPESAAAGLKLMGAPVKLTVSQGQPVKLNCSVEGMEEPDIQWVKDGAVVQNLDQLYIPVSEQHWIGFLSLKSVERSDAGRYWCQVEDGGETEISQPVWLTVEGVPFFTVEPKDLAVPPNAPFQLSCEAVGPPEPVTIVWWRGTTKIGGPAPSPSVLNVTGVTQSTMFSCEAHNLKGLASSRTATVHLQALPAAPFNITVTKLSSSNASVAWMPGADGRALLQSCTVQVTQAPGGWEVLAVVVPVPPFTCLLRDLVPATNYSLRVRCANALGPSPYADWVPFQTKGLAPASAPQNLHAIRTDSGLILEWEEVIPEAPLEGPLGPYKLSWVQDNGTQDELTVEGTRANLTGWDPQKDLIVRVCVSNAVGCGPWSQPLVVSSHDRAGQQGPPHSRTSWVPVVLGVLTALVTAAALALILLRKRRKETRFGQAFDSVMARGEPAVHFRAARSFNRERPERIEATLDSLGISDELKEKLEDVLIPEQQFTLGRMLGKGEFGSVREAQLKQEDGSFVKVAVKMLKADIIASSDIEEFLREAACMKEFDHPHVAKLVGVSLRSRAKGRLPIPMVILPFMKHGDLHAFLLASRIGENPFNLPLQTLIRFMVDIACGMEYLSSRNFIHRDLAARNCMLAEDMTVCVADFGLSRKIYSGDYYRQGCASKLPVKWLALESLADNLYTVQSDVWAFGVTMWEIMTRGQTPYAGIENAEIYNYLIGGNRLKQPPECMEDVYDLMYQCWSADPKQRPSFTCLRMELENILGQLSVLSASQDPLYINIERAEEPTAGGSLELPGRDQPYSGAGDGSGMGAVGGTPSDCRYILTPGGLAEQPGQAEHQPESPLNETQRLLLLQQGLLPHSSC

[5] = molecular target: Serine/threonine-protein kinase D3 (Homo sapiens, UniProt O94806);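 note: determined within a kinase panel screen, with PRKCN as the panel member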
[6] = molecular target: Serine/threonine-protein kinase pim-1 (Homo sapiens, UniProt P11309)
Aurora kinase A = molecular target: T2, Aurora kinase A (Homo sapiens, UniProt O14965);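 note: value from the Navigating the Kinome kinase panel profiling, panel entry STK6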
T2 sequence (O14965 whole entry): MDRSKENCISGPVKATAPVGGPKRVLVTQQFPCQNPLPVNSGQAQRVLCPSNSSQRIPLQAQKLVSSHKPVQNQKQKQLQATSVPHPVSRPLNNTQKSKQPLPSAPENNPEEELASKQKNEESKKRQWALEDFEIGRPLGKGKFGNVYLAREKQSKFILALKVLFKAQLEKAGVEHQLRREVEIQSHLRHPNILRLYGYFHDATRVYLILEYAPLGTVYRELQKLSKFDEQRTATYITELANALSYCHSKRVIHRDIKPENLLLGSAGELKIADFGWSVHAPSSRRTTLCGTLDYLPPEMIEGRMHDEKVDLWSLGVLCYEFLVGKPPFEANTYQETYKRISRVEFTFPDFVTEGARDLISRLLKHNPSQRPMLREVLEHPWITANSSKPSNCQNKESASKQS

[7] = molecular target: Tyrosine-protein kinase BTK (Homo sapiens, UniProt Q06187)
[8] = molecular target: Serine/threonine-protein kinase PAK 4 (Homo sapiens, UniProt O96013);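 note: value obtained within a kinome profiling panel in which PAK4 was one of the panel members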
[9] = molecular target: Casein kinase I isoform alpha (Homo sapiens, UniProt P48729)
[10] = molecular target: Tyrosine-protein kinase ABL1 (Homo sapiens, UniProt P00519)
[11] = molecular target: Vascular endothelial growth factor receptor 2 (Homo sapiens, UniProt P35968)
[12] = molecular target: G protein-coupled receptor kinase 5 (Homo sapiens, UniProt P34947); assay: Navigating the Kinome. Panel member name: GPRK5
[13] = molecular target: Dual specificity tyrosine-phosphorylation-regulated kinase 1B (Homo sapiens, UniProt Q9Y463); assay: Navigating the Kinome. Panel member name: DYRK1B
Aurora kinase B = Aurora kinase B (Homo sapiens, UniProt Q96GD4)
[14] = molecular target: Rho-associated protein kinase 1 (Homo sapiens, UniProt Q13464);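 note: measured within a broad kinome-wide panel profiling many kinases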
[15] = molecular target: Tyrosine-protein kinase Fyn (Homo sapiens, UniProt P06241)
[16] = molecular target: T3, Serine/threonine-protein kinase Nek2 (Homo sapiens, UniProt P51955)
T3 sequence (P51955 whole entry): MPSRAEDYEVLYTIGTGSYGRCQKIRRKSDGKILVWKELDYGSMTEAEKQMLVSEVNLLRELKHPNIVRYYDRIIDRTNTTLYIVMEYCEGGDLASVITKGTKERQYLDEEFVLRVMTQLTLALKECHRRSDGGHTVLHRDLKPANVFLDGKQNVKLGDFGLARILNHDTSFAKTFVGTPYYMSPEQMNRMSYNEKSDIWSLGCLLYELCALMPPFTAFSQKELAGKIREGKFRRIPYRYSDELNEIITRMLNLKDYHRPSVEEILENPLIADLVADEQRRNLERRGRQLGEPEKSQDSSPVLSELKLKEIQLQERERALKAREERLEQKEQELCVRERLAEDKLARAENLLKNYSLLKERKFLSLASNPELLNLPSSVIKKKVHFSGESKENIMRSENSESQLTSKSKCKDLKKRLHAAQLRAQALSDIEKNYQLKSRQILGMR

[17] = molecular target: Cyclin-dependent kinase 8 (Homo sapiens, UniProt P49336); assay: Navigating the Kinome. Panel member name: CDK8
[18] = molecular target: Cyclin-dependent kinase 7 (Homo sapiens, UniProt P50613);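 note: value comes from a kinome-wide kinase profiling panel in which CDK7 is one member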
[19] = molecular target: Dual specificity protein kinase CLK4 (Homo sapiens, UniProt Q9HAZ1)
[20] = molecular target: Inhibitor of nuclear factor kappa-B kinase subunit epsilon (Homo sapiens, UniProt Q14164); assay: Navigating the Kinome. Panel member name: IKBKE

Dual specificity tyrosine-phosphorylation-regulated kinase 1B, sequence (Q9Y463 whole entry): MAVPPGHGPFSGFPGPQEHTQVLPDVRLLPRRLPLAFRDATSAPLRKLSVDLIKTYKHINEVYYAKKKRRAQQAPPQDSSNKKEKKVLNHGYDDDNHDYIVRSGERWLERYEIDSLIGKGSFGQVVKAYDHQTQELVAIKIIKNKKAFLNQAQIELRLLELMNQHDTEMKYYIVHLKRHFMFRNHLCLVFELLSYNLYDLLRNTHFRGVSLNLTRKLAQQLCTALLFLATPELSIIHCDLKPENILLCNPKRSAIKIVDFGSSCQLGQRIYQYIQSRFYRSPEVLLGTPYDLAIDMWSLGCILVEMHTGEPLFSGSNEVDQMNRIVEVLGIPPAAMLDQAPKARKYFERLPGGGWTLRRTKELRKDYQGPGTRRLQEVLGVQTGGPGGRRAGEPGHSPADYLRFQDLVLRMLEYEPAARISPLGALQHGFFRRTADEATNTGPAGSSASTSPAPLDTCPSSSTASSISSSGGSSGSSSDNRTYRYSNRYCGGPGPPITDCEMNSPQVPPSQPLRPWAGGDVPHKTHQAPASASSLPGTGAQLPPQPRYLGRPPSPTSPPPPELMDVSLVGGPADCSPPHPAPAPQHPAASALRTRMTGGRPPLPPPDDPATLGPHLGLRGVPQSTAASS
Aurora kinase B, sequence (Q96GD4 whole entry): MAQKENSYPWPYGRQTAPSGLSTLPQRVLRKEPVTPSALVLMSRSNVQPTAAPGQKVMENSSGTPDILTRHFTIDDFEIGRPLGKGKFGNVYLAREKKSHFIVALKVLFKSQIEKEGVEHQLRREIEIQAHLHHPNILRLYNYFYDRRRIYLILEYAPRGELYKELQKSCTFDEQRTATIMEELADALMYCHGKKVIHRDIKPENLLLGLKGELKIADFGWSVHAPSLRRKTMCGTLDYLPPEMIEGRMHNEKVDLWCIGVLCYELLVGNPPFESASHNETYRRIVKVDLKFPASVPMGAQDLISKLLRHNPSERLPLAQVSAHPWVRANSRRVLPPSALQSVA
Rho-associated protein kinase 1, sequence (Q13464 whole entry): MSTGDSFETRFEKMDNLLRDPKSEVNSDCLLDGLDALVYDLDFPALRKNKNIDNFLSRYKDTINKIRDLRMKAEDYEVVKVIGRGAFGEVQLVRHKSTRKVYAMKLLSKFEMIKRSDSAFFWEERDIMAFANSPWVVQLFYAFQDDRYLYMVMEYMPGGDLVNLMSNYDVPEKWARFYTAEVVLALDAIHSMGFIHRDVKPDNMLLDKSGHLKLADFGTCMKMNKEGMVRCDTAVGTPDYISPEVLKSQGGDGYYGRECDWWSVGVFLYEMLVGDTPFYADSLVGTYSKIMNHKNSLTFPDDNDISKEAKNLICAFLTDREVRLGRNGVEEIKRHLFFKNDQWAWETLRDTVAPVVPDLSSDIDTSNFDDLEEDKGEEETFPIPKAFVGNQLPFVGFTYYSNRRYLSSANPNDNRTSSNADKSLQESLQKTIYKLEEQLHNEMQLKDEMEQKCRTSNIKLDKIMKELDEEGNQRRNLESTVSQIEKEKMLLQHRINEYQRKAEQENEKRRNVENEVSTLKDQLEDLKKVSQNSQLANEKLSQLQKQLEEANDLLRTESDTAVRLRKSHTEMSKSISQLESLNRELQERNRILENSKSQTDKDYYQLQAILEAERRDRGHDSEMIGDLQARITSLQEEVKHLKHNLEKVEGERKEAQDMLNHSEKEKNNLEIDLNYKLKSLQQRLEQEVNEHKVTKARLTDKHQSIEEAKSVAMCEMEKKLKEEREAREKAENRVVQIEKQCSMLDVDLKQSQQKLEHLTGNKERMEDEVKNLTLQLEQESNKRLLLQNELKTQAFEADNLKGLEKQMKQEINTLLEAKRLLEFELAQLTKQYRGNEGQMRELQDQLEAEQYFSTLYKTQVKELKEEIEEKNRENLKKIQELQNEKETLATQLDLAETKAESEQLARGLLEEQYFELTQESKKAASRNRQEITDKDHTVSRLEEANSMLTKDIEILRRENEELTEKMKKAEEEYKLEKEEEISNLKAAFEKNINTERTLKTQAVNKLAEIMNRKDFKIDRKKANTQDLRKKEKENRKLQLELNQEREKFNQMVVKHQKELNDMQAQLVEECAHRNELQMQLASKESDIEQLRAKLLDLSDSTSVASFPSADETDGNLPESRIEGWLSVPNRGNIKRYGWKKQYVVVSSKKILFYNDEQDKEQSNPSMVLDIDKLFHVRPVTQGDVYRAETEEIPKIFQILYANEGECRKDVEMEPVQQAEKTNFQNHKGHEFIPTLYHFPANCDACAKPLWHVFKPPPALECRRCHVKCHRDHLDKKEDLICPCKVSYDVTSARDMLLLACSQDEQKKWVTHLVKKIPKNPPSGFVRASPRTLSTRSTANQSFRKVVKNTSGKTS
Serine/threonine-protein kinase pim-1, sequence (P11309 whole entry): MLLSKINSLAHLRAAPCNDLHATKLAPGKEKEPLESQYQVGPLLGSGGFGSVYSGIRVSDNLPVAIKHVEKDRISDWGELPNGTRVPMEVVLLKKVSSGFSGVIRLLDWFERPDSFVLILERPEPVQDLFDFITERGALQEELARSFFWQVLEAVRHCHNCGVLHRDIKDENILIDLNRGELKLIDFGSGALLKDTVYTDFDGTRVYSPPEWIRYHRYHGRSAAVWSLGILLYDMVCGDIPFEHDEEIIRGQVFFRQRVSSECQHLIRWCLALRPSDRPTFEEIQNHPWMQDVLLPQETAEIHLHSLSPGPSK
Serine/threonine-protein kinase D3, sequence (O94806 whole entry): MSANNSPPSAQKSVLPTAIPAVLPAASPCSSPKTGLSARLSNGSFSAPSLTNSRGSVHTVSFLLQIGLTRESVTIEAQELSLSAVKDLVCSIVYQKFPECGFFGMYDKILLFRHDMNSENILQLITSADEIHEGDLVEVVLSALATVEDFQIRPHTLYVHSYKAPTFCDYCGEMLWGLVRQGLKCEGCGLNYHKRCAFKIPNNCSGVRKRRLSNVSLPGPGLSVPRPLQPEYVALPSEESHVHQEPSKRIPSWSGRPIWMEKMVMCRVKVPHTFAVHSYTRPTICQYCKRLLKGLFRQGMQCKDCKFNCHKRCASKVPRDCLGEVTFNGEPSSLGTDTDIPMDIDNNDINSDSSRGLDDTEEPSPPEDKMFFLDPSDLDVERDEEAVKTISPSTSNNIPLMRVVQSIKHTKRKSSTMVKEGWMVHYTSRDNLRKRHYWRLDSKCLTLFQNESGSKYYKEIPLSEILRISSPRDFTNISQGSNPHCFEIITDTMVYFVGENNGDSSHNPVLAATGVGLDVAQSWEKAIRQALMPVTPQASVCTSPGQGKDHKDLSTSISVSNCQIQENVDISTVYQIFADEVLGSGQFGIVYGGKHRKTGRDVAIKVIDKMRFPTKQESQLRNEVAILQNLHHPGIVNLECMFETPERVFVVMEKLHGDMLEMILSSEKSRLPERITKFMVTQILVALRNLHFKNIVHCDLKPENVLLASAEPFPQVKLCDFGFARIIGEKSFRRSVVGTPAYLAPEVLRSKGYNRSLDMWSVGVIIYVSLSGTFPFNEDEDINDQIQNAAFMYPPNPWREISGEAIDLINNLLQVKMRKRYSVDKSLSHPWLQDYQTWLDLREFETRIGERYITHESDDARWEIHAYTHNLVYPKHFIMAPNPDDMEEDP
Tyrosine-protein kinase Fyn, sequence (P06241 whole entry): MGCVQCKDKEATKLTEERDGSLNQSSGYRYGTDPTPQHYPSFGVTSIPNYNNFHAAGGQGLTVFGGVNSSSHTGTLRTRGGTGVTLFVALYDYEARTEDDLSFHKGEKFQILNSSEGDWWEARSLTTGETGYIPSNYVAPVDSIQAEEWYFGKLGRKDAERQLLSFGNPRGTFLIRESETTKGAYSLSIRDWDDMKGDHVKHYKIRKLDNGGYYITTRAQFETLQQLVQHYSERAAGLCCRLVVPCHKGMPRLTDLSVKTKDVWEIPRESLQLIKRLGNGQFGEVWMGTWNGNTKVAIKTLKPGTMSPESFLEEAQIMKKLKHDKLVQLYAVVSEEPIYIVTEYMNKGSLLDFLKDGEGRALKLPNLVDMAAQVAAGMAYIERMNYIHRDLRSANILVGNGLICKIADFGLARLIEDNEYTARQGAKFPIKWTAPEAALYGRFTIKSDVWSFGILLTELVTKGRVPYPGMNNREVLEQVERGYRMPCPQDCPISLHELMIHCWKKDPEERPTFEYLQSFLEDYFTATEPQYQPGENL
Casein kinase I isoform alpha, sequence (P48729 whole entry, canonical isoform): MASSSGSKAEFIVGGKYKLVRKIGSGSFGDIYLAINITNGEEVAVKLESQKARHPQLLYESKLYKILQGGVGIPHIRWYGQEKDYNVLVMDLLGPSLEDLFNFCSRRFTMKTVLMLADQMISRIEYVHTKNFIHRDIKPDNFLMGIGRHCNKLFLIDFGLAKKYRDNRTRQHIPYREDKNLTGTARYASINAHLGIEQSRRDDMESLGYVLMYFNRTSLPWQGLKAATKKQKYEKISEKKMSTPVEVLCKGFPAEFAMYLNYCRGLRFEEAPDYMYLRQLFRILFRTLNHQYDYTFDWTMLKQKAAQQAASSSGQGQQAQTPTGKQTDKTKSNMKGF
Serine/threonine-protein kinase PAK 4, sequence (O96013 whole entry, canonical isoform): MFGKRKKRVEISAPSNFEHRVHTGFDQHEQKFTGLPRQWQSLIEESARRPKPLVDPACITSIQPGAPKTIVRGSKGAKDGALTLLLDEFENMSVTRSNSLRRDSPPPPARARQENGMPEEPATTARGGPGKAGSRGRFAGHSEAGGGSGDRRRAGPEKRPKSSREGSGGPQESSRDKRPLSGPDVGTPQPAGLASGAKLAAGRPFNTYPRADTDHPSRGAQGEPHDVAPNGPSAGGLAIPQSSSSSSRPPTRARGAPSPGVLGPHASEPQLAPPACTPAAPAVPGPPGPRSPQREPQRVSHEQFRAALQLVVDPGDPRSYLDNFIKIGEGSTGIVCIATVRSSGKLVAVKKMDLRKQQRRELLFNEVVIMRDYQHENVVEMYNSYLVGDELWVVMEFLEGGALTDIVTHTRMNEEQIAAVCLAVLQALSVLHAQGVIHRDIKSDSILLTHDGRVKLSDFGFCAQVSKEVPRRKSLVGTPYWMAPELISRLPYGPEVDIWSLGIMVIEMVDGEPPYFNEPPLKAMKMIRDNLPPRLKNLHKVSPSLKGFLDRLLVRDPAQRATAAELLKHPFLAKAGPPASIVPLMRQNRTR

SMILES	EC50 [1]	AC50 (INS1)	AC50 [2]	Ki [3]	Ki [4]	Ki [5]	Ki [6]	Ki (Aurora kinase A)	Ki [7]	Ki [8]	Ki [9]	Ki [10]	Ki [11]	Ki [12]	Ki [13]	Ki (Aurora kinase B)	Ki [14]	Ki [15]	Ki [16]	Ki [17]	further results
Cc1ccc(C(=O)OCn2ncc(Cl)c(Cl)c2=O)cc1	3070 nM (inconclusive)	5510 nM (active)	5070 nM (active)																		
O=C(Nc1cccc(C2Nc3ccc4ccccc4c3C3C=CCC32)c1)c1ccc(F)cc1 (stereo unspecified)				> 2510 nM (inactive)	1260 nM (active)	> 3980 nM (inactive)	316 nM (active)	501 nM (active)	5010 nM (active)	> 5010 nM (inactive)	3980 nM (active)	1260 nM (active)	> 2510 nM (inactive)	1260 nM (active)	> 2510 nM (inactive)	1000 nM (active)	> 3980 nM (inactive)	> 6310 nM (inactive)	1580 nM (active)	794 nM (active)	Ki [18]: 1260 nM (active); Ki [19]: 1000 nM (active); Ki [20]: > 3160 nM (inactive)
Cc1ccc(-c2cc(-c3cc(Br)ccc3O)[nH]c(=O)c2C#N)s1				794 nM (active)	794 nM (active)	> 3980 nM (inactive)	1000 nM (active)	1580 nM (active)	> 6310 nM (inactive)	2000 nM (active)	> 3980 nM (inactive)	> 2510 nM (inactive)	631 nM (active)	1000 nM (active)	794 nM (active)	794 nM (active)	1000 nM (active)	3160 nM (active)	> 3160 nM (inactive)	1260 nM (active)	Ki [18]: > 3980 nM (inactive); Ki [19]: > 2510 nM (inactive); Ki [20]: > 3160 nM (inactive)
CCCC(=O)NC(c1cccs1)c1cc(Cl)c2cccnc2c1O (stereo unspecified)	> 150000 nM (inactive)	1420 nM (active)	3160 nM (active)																		

Reference: ChEMBL document CHEMBL1201862, “PubChem BioAssay data set” (2004)
